Data: ChEMBL document CHEMBL1201862, “PubChem BioAssay data set” (2004)
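Tested at 5 concentrations; 48 h exposure; 96-well plates; endpoints linearly interpolated, else capped at highest concentration. Here, GI50 denotes the concentration required for 50% inhibition of growth.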 Calls of active or inactive are those of the source. Cut-off read from the data, not from the text of the source: active = GI50 up to about 1.1 µM and inactive = higher.

Assays:
Assay in all cases: NCI tumour cell line growth inhibition, 48 h
[1] = system: MDA-N
[2] = system: EKVX
[3] = system: OVCAR-8
[4] = system: DU-145
[5] = system: KM12
[6] = system: HT-29
[7] = system: OVCAR-4
[8] = system: NCI-H23
[9] = system: OVCAR-3
[10] = system: HL-60
[11] = system: 786-0
[12] = system: TK-10
[13] = system: UACC-62
[14] = system: A549
[15] = system: SK-OV-3
[16] = system: HCT-116
[17] = system: HOP-92
[18] = system: COLO 205
[19] = system: NCI/ADR-RES
[20] = system: OVCAR-5

Measured: GI50

CC(C)(C)N(Cc1ccc2c(c1)OCO2)C(=O)/C=C\[S+]([O-])c1ccccc1 (stereo not given)
inactive: [1] 2.4 µM | [2] 7.29 µM | [3] 2.03 µM | [4] 2.73 µM | [5] 3.85 µM | [6] 3.23 µM | [7] 3.1 µM | [8] 2.27 µM | [9] 1.99 µM | [10] 2.11 µM | [11] 2.25 µM | [12] 4.55 µM | [13] 3.37 µM | [14] 4.6 µM | [15] 3.01 µM | [16] 2.74 µM | [17] 2.29 µM | [18] 3.01 µM | [19] 2.48 µM | [20] 10.7 µM
